Measured values published in patent US20260007133A1, “HERBICIDAL COMPOSITION COMPRISING AZINE COMPOUNDS” (BASF SE, priority 2022, published 2026).
Like-named read-outs stand apart in the source and are kept apart here.

Experiments:
Type in all cases: in vivo
Abutilon theophrasti [1] = assay: Greenhouse pre-emergence (PRE) herbicidal test on ABUTH; conditions: Abutilon theophrasti, pre-emergence
Summary of the method: (§1)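 Herbicidal effect was assessed 20 DAT after pre-emergence treatment of sown pots, using a 0-100 scale where 100 means no emergence or destruction of at least the above-ground parts.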

Amaranthus retroflexus [2] = assay: Greenhouse pre-emergence (PRE) herbicidal test on AMARE; conditions: Amaranthus retroflexus, pre-emergence
Summary of the method: as §1

Ambrosia artemisiifolia = assay: Greenhouse pre-emergence (PRE) herbicidal test on AMBEL; conditions: Ambrosia artemisiifolia, pre-emergence; for inhibition at 4 g/ha: use rate 4 gai/ha; for inhibition at 8 g/ha: use rate 8 gai/ha
Brachiaria decumbens = assay: Greenhouse pre-emergence (PRE) herbicidal test on BRADC; conditions: Urochloa decumbens, use rate 8 gai/ha
Summary of the method: (§2)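 First, each species was sown separately in loamy sand containing about 3.0% humus. Then the aqueous active compound was applied by finely distributing nozzles straight after sowing, pots were gently irrigated and covered with transparent hoods, and injury was assessed on a 0–100 scale at 20 DAT.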

Commelina benghalensis = assay: Greenhouse pre-emergence (PRE) herbicidal test on COMBE
Summary of the method: as §1

Euphorbia heterophylla [3] = assay: Greenhouse pre-emergence (PRE) herbicidal test on EPHHL; conditions: Euphorbia heterophylla, pre-emergence
Summary of the method: as §1

Galium aparine = assay: Greenhouse pre-emergence (PRE) herbicidal test on GALAP; conditions: Galium aparine, pre-emergence; PRE; GALAP; use rate 8 gai/ha
Summary of the method: as §2

Geranium pusillum = assay: Greenhouse pre-emergence (PRE) herbicidal test on GERPU; conditions: Geranium pusillum, pre-emergence, use rate 8 gai/ha
Summary of the method: as §2

Abutilon theophrasti [4] = assay: Greenhouse post-emergence (POST) herbicidal test on ABUTH; conditions: Abutilon theophrasti, post-emergence
Summary of the method: (§3)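 Injury was rated visually on a 0–100 scale, where 0 is normal growth and 100 is complete above-ground kill, 20 days after treatment. Test plants at 3–15 cm height received a post-emergence spray of water-dispersed active from 5% emulsion concentrates. Pots held loamy sand with ~3.0% humus, at 10-25 °C or 20-35 °C depending on species.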

Amaranthus retroflexus [5] = assay: Greenhouse post-emergence (POST) herbicidal test on AMARE; conditions: Amaranthus retroflexus, post-emergence
Summary of the method: as §3

Digitaria sanguinalis = assay: Greenhouse post-emergence (POST) herbicidal test on DIGSA; conditions: Digitaria sanguinalis, post-emergence, POST
Summary of the method: as §3

Echinochloa crus-galli = assay: Greenhouse post-emergence (POST) herbicidal test on ECHCG; conditions: Echinochloa crus-galli, post-emergence; for inhibition at 4 g/ha: use rate 4 gai/ha
Summary of the method: as §3

Euphorbia heterophylla [6] = assay: Greenhouse post-emergence (POST) herbicidal test on EPHHL; conditions: Euphorbia heterophylla, post-emergence
Summary of the method: as §3

## COc1c(Br)cc(F)c(F)c1Nc1nc(N)nc(C(C)(C)F)n1 [Compound I-2]
Abutilon theophrasti [1]; 432 h, PRE, ABUTH, I-2 solo 2 gai/ha, 18 DAT
  pest or weed control at 2 g/ha: 30%
Abutilon theophrasti [1]; 432 h, PRE, ABUTH, I-2 solo 8 gai/ha, 18 DAT
  pest or weed control at 8 g/ha: 50%
Abutilon theophrasti [1]; 480 h, ABUTH PRE, 20 DAT, use rate 8 gai/ha, read-out: % activity
  inhibition at 8 g/ha: 65%
Abutilon theophrasti [1]; 480 h, PRE, 2 gai/ha, 20 DAT
  pest or weed control at 2 g/ha: 10%
Abutilon theophrasti [1]; 480 h, PRE, 8 gai/ha, 20 DAT
  pest or weed control at 8 g/ha: 65%
Abutilon theophrasti [1]; 480 h, PRE, ABUTH, 2 gai/ha, 20 DAT, read-out: % activity solo application
  inhibition at 2 g/ha: 10%
Abutilon theophrasti [1]; 480 h, PRE, ABUTH, 8 gai/ha, 20 DAT, read-out: % activity solo application
  inhibition at 8 g/ha: 55%
Abutilon theophrasti [1]; 480 h, PRE, ABUTH, use rate 8 gai/ha, 20 DAT, read-out: solo application % activity
  inhibition at 8 g/ha: 55%
Abutilon theophrasti [1]; ABUTH PRE, use rate 2 gai/ha, read-out: % activity
  inhibition at 2 g/ha: 20%
Abutilon theophrasti [1]; PRE, ABUTH, use rate 2 gai/ha, read-out: % activity
  inhibition at 2 g/ha: 20%
Amaranthus retroflexus [2]; 432 h, PRE, AMARE, I-2 solo 2 gai/ha, 18 DAT
  pest or weed control at 2 g/ha: 80%
Amaranthus retroflexus [2]; 480 h, AMARE PRE, 20 DAT, use rate 2 gai/ha, read-out: % activity
  inhibition at 2 g/ha: 70%
Amaranthus retroflexus [2]; 480 h, PRE, 2 gai/ha, 20 DAT
  pest or weed control at 2 g/ha: 70%
Amaranthus retroflexus [2]; 480 h, PRE, AMARE, 2 gai/ha, 20 DAT, read-out: % activity solo application
  inhibition at 2 g/ha: 70%
Amaranthus retroflexus [2]; 480 h, PRE, AMARE, use rate 2 gai/ha, 20 DAT, read-out: solo application % activity
  inhibition at 2 g/ha: 70%
Ambrosia artemisiifolia; 240 h, PRE, use rate 2 gai/ha, 10 DAT, read-out: % activity
  inhibition at 2 g/ha: 20%
Ambrosia artemisiifolia; 240 h, PRE, 10 DAT
  inhibition at 4 g/ha: 20%
Ambrosia artemisiifolia; 240 h, PRE, 10 DAT, read-out: % activity
  inhibition at 8 g/ha: 35%
Ambrosia artemisiifolia; 240 h, PRE, use rate 16 gai/ha, 10 DAT
  inhibition at 16 g/ha: 50%
Ambrosia artemisiifolia; 432 h, PRE, AMBEL, I-2 solo 8 gai/ha, 18 DAT
  pest or weed control at 8 g/ha: 70%
Ambrosia artemisiifolia; 480 h, AMBEL PRE, 20 DAT, use rate 2 gai/ha, read-out: % activity
  inhibition at 2 g/ha: 35%
Ambrosia artemisiifolia; 480 h, AMBEL PRE, 20 DAT, read-out: % activity
  inhibition at 8 g/ha: 90%
Ambrosia artemisiifolia; 480 h, PRE, 8 gai/ha, 20 DAT
  pest or weed control at 8 g/ha: 90%
Ambrosia artemisiifolia; 480 h, PRE, AMBEL, 2 gai/ha, 20 DAT, read-out: % activity solo application
  inhibition at 2 g/ha: 0%
Ambrosia artemisiifolia; 480 h, PRE, AMBEL, use rate 2 gai/ha, 20 DAT, read-out: solo application % activity
  inhibition at 2 g/ha: 0%
Ambrosia artemisiifolia; 480 h, PRE, 20 DAT, read-out: % activity
  inhibition at 8 g/ha: 80%
Ambrosia artemisiifolia; AMBEL PRE, use rate 2 gai/ha, read-out: % activity
  inhibition at 2 g/ha: 30%
Ambrosia artemisiifolia; PRE, AMBEL
  inhibition at 4 g/ha: 20%
Brachiaria decumbens; BRADC PRE
  inhibition at 8 g/ha: 80%
Brachiaria decumbens; PRE, BRADC
  inhibition at 8 g/ha: 70%
Commelina benghalensis; Commelina benghalensis, pre-emergence, 432 h, PRE, COMBE, I-2 solo 8 gai/ha, 18 DAT
  pest or weed control at 8 g/ha: 25%
Commelina benghalensis; Commelina benghalensis, pre-emergence, 480 h, COMBE PRE, 20 DAT, use rate 2 gai/ha, read-out: % activity
  inhibition at 2 g/ha: 20%
Commelina benghalensis; Commelina benghalensis, pre-emergence, 480 h, COMBE PRE, 20 DAT, use rate 8 gai/ha, read-out: % activity
  inhibition at 8 g/ha: 60%
Commelina benghalensis; Commelina benghalensis, pre-emergence, 480 h, PRE, COMBE, 2 gai/ha, 20 DAT, read-out: % activity solo application
  inhibition at 2 g/ha: 10%
Commelina benghalensis; Commelina benghalensis, pre-emergence, 480 h, PRE, COMBE, 8 gai/ha, 20 DAT, read-out: % activity solo application
  inhibition at 8 g/ha: 45%
Commelina benghalensis; Commelina benghalensis, pre-emergence, 480 h, PRE, COMBE, use rate 8 gai/ha, 20 DAT, read-out: solo application % activity
  inhibition at 8 g/ha: 45%
Commelina benghalensis; Commelina benghalensis, pre-emergence, COMBE PRE, use rate 8 gai/ha, read-out: % activity
  inhibition at 8 g/ha: 25%
Commelina benghalensis; Commelina benghalensis, pre-emergence, PRE, COMBE, use rate 4 gai/ha
  inhibition at 4 g/ha: 10%
Commelina benghalensis; PRE, COMBE, use rate 4 gai/ha
  % activity: 15%
Euphorbia heterophylla [3]; 432 h, PRE, EPHHL, I-2 solo 2 gai/ha, 18 DAT
  pest or weed control at 2 g/ha: 10%
Euphorbia heterophylla [3]; 432 h, PRE, EPHHL, I-2 solo 8 gai/ha, 18 DAT
  pest or weed control at 8 g/ha: 35%
Euphorbia heterophylla [3]; 480 h, EPHHL PRE, 20 DAT, use rate 8 gai/ha, read-out: % activity
  inhibition at 8 g/ha: 10%
Euphorbia heterophylla [3]; 480 h, PRE, 2 gai/ha, 20 DAT
  pest or weed control at 2 g/ha: 10%
Euphorbia heterophylla [3]; 480 h, PRE, 8 gai/ha, 20 DAT
  pest or weed control at 8 g/ha: 10%
Euphorbia heterophylla [3]; 480 h, PRE, EPHHL, 2 gai/ha, 20 DAT, read-out: % activity solo application
  inhibition at 2 g/ha: 0%
Euphorbia heterophylla [3]; 480 h, PRE, EPHHL, 8 gai/ha, 20 DAT, read-out: % activity solo application
  inhibition at 8 g/ha: 15%
Euphorbia heterophylla [3]; 480 h, PRE, EPHHL, use rate 2 gai/ha, 20 DAT, read-out: solo application % activity
  inhibition at 2 g/ha: 0%
Euphorbia heterophylla [3]; 480 h, PRE, EPHHL, use rate 8 gai/ha, 20 DAT, read-out: solo application % activity
  inhibition at 8 g/ha: 15%
Galium aparine
  inhibition at 8 g/ha: 15%
Geranium pusillum; 480 h, PRE, GERPU, 20 DAT
  inhibition at 8 g/ha: 80%
Geranium pusillum; GERPU PRE
  inhibition at 8 g/ha: 0%
Geranium pusillum; PRE, GERPU
  inhibition at 8 g/ha: 0%
Abutilon theophrasti [4]; 432 h, POST, ABUTH, I-2 solo 2 gai/ha, 18 DAT
  pest or weed control at 2 g/ha: 20%
Abutilon theophrasti [4]; 432 h, POST, ABUTH, I-2 solo 8 gai/ha, 18 DAT
  pest or weed control at 8 g/ha: 20%
Abutilon theophrasti [4]; 480 h, ABUTH POST, 20 DAT, use rate 2 gai/ha, read-out: % activity
  inhibition at 2 g/ha: 10%
Abutilon theophrasti [4]; 480 h, POST, 2 gai/ha, 20 DAT
  pest or weed control at 2 g/ha: 10%
Abutilon theophrasti [4]; 480 h, POST, ABUTH, 2 gai/ha, 20 DAT, read-out: % activity solo application
  inhibition at 2 g/ha: 15%
Abutilon theophrasti [4]; 480 h, POST, ABUTH, 8 gai/ha, 20 DAT, read-out: % activity solo application
  inhibition at 8 g/ha: 40%
Abutilon theophrasti [4]; 480 h, POST, ABUTH, use rate 8 gai/ha, 20 DAT, read-out: solo application % activity
  inhibition at 8 g/ha: 40%
Amaranthus retroflexus [5]; 432 h, POST, AMARE, I-2 solo 2 gai/ha, 18 DAT
  pest or weed control at 2 g/ha: 55%
Amaranthus retroflexus [5]; 432 h, POST, AMARE, I-2 solo 8 gai/ha, 18 DAT
  pest or weed control at 8 g/ha: 70%
Amaranthus retroflexus [5]; 480 h, AMARE POST, 20 DAT, use rate 2 gai/ha, read-out: % activity
  inhibition at 2 g/ha: 65%
Amaranthus retroflexus [5]; 480 h, AMARE POST, 20 DAT, use rate 8 gai/ha, read-out: % activity
  inhibition at 8 g/ha: 65%
Amaranthus retroflexus [5]; 480 h, POST, 8 gai/ha, 20 DAT
  pest or weed control at 8 g/ha: 65%
Amaranthus retroflexus [5]; 480 h, POST, AMARE, 2 gai/ha, 20 DAT, read-out: % activity solo application
  inhibition at 2 g/ha: 40%
Amaranthus retroflexus [5]; 480 h, POST, AMARE, 8 gai/ha, 20 DAT, read-out: % activity solo application
  inhibition at 8 g/ha: 75%
Amaranthus retroflexus [5]; 480 h, POST, AMARE, use rate 2 gai/ha, 20 DAT, read-out: solo application % activity
  inhibition at 2 g/ha: 40%
Amaranthus retroflexus [5]; 480 h, POST, use rate 2 gai/ha, 20 DAT, read-out: % activity
  inhibition at 2 g/ha: 75%
Digitaria sanguinalis; 432 h, DIGSA, I-2 solo 2 gai/ha, 18 DAT
  pest or weed control at 2 g/ha: 0%
Digitaria sanguinalis; 480 h, 8 gai/ha, 20 DAT
  pest or weed control at 8 g/ha: 65%
Digitaria sanguinalis; 480 h, DIGSA, 2 gai/ha, 20 DAT, read-out: % activity solo application
  inhibition at 2 g/ha: 0%
Digitaria sanguinalis; 480 h, DIGSA, 8 gai/ha, 20 DAT, read-out: % activity solo application
  inhibition at 8 g/ha: 20%
Digitaria sanguinalis; 480 h, DIGSA, use rate 2 gai/ha, 20 DAT, read-out: solo application % activity
  inhibition at 2 g/ha: 0%
Digitaria sanguinalis; 480 h, DIGSA, use rate 8 gai/ha, 20 DAT, read-out: solo application % activity
  inhibition at 8 g/ha: 20%
Echinochloa crus-galli; 432 h, POST, ECHCG, I-2 solo 2 gai/ha, 18 DAT
  pest or weed control at 2 g/ha: 0%
Echinochloa crus-galli; 432 h, POST, ECHCG, I-2 solo 8 gai/ha, 18 DAT
  pest or weed control at 8 g/ha: 15%
Echinochloa crus-galli; 480 h, ECHCG POST, 20 DAT, use rate 2 gai/ha, read-out: % activity
  inhibition at 2 g/ha: 0%
Echinochloa crus-galli; 480 h, POST, ECHCG, 20 DAT
  inhibition at 4 g/ha: 0%
Echinochloa crus-galli; POST, ECHCG
  inhibition at 4 g/ha: 25%
Euphorbia heterophylla [6]; 432 h, POST, EPHHL, I-2 solo 2 gai/ha, 18 DAT
  pest or weed control at 2 g/ha: 25%
Euphorbia heterophylla [6]; 480 h, EPHHL POST, 20 DAT, use rate 2 gai/ha, read-out: % activity
  inhibition at 2 g/ha: 10%
Euphorbia heterophylla [6]; 480 h, POST, 2 gai/ha, 20 DAT
  pest or weed control at 2 g/ha: 10%
Euphorbia heterophylla [6]; 480 h, POST, EPHHL, 8 gai/ha, 20 DAT, read-out: % activity solo application
  inhibition at 8 g/ha: 30%
Euphorbia heterophylla [6]; 480 h, POST, EPHHL, use rate 4 gai/ha, 20 DAT
  inhibition at 4 g/ha: 50%
Euphorbia heterophylla [6]; 480 h, POST, EPHHL, use rate 8 gai/ha, 20 DAT, read-out: % activity
  inhibition at 8 g/ha: 60%
